Square brackets hold non-standard residues; d marks the D form. Peptide text beside a SMILES is read from it. * marks the point of attachment. Sta = CC(C)C[C@H](N)[C@@H](O)CC(=O)O; Isovaleryl = CC(C)CC(=O)*
Key:
[1] = target: T1, human renin (Homo sapiens, UniProt P00797); experiment: Human Renin Inhibition in vitro; format: biochemical; conditions: pH 7.4, 2 h at 37° C., human plasma, angiotensin I by radioimmunoassay
T1 construct: purchased National Institute for Biological Standards, London
T1 sequence (P00797 67-406): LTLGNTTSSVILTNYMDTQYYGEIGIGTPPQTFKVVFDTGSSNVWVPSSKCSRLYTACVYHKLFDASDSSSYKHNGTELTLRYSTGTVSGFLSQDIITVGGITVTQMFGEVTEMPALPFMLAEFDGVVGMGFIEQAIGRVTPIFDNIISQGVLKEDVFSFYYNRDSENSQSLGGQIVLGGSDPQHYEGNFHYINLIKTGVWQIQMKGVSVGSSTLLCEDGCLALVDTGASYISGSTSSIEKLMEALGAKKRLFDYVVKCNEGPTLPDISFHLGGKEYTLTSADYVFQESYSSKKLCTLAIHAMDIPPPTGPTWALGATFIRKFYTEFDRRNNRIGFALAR
Procedure: Compounds of Formula I were evaluated as inhibitors of human renin in an in vitro assay, as follows: This human renin inhibition test has been previously described in detail [Papaioannou et al., Clinical and Experimental Hypertension, A7(9), 1243-1257 (1985)]. Human renin was obtained from the National Institute for Biological Standards, London. An incubation mixture was prepared containing the following components: in a total volume of 0.25 mL: 100 mM Tris-acetate buffer at pH 7.4, 25×10^-6 Goldblatt units of renin, 0.05 mL of plasma from human volunteers taking oral contraceptives, 6.0 mM Na-EDTA, 2.4 mM phenylmethyl sulfonyl fluoride, 1.5 mM 8-hydroxyquinoline, 0.4 mg/mL bovine serum albumin (BSA), and 0.024 mg/mL neomycin sulfate. This mixture was incubated for two hours at 37° C. in the presence or absence of renin inhibitors. The produced angiotensin I was determined by radioimmunoassay (New England Nuclear kit). Test compounds to be assayed were dissolved in DMSO and diluted with 100 mM Tris-acetate buffer at pH 7.4 containing 0.5% BSA to the appropriate concentration. The final concentration of organic solvent in the reaction mixture was less than 1%. Control incubations at 37° C. were used to correct for effects of organic solvent on renin activity.

[2] = test system: renin; conditions: cited from earlier work
[3] = test system: pepsin; conditions: cited from earlier work
[4] = test system: cathepsin D; conditions: cited from earlier work
[5] = test system: hog renin; conditions: nephrectomized rats, after injection of hog renin; cited from earlier work

| IC50 [1] | Structure (SMILES) | inhibitor of renin [2] | inhibitor of pepsin [3] | inhibitor of cathepsin D [4] | reduce blood pressure in vivo [5] |
| --- | --- | --- | --- | --- | --- |
| 0.3 nM | CC(C)C[C@H](O)[C@H](O)[C@H](CC1CCCCC1)NC(=O)[C@H](CC1CC1)NC(=O)C(Cc1ccccc1)CS(=O)(=O)C(C)(C)C (stereo partly drawn) [Example 1] |  |  |  |  |
| 2.7 nM | CC(C)C[C@H](O)[C@H](O)[C@H](CC1CCCCC1)NC(=O)[C@H](CC1CC1)NC(=O)C(CSC(C)(C)C)Cc1ccccc1 (stereo partly drawn) [Example 2] |  |  |  |  |
|  | CC(C)CC(=O)N[C@H](C(=O)N[C@H](C(=O)N[C@@H](CC(C)C)[C@@H](O)CC(=O)N[C@@H](C)C(=O)N[C@@H](CC(C)C)[C@@H](O)CC(=O)O)C(C)C)C(C)C [pepstatin] (Isovaleryl-VV[Sta]A[Sta]-OH) | inhibitor | inhibitor | inhibitor | reduce blood pressure in vivo |

— US5317039A, “Cyclopropyl-alanine aryl/alkylsulfide/sulfonyl-terminated amino-diol compounds for treatment of hypertension” (G. D. Searle & Co., priority 1992, dated 1994)
